Data on 43 molecules can be found in patent US9193722B2, “Tri-cyclic pyrazolopyridine kinase inhibitors” (Vertex Pharmaceuticals Incorporated, priority 2008, dated 2015).

Structures are written as SMILES.

What all share (assay type): biochemical
Assay [1] has as its target PKC alpha kinase (Homo sapiens, UniProt P17252). The experiment in a line: PKC alpha kinase inhibition, coupled-enzyme (NADH absorbance) assay, Ki. As to conditions: 130 μM ATP, 4.5 nM PKC alpha kinase, 30° C. In a few lines:
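Ki derived by non-linear regression of initial rates from a coupled assay tracking NADH absorbance at 340 nm over 15 min at 30 °C. ATP was 130 μM final after a 10 min compound–enzyme preincubation in HEPES pH 7.5 buffer with MgCl2, CaCl2, NaCl, EDTA and Brij.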

The target of assay [2] is PKC theta kinase (Homo sapiens, UniProt Q04759). The assay can be described thus: PKC theta kinase inhibition, coupled-enzyme (NADH absorbance) assay, Ki. As to conditions: 240 μM ATP, 18 nM PKC theta kinase, 30° C. In a few lines: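 Enzyme and compound equilibrated 10 min at 30 °C before reaction in HEPES pH 7.5 buffer with MgCl2, NaCl, EDTA and Brij. Activity tracked as NADH loss at 340 nm through a coupled system. Initial-rate data fitted by non-linear regression to give Ki.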

Assay [3] deals with PKC delta kinase (Homo sapiens, UniProt Q05655). The experiment in a line: PKC delta kinase inhibition, coupled-enzyme (NADH absorbance) assay, Ki. As to conditions: 150 μM ATP, 46 nM PKC delta kinase, 30° C.; read-out: Ki PKC delta. In short, it runs like this: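 Enzyme and compound pre-equilibrated 10 min at 30° C before adding ATP to 150 μM final. Buffer: HEPES pH 7.5 (100 mM), 10 mM MgCl2, 25 mM NaCl, 0.1 mM EDTA, 0.01% Brij.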
PKC delta kinase, sequence (Q05655 whole entry): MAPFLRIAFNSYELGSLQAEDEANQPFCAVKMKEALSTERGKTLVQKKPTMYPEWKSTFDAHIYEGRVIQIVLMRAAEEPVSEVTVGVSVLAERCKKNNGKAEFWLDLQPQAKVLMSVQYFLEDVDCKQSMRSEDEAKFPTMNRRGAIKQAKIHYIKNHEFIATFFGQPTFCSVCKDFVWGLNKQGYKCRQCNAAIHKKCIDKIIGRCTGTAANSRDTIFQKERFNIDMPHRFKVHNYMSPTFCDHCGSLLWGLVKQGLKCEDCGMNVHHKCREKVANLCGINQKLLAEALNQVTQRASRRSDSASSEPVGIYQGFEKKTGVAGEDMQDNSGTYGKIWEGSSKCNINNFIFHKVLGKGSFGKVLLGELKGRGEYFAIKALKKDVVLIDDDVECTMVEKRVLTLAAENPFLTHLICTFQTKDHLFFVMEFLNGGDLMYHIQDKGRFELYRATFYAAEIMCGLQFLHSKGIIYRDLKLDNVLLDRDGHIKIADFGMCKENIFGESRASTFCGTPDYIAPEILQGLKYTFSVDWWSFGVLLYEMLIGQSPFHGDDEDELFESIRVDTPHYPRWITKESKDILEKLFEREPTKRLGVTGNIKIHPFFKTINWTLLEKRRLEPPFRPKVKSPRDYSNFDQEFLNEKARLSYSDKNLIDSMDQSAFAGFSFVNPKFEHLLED

PKC theta kinase, sequence (Q04759 whole entry): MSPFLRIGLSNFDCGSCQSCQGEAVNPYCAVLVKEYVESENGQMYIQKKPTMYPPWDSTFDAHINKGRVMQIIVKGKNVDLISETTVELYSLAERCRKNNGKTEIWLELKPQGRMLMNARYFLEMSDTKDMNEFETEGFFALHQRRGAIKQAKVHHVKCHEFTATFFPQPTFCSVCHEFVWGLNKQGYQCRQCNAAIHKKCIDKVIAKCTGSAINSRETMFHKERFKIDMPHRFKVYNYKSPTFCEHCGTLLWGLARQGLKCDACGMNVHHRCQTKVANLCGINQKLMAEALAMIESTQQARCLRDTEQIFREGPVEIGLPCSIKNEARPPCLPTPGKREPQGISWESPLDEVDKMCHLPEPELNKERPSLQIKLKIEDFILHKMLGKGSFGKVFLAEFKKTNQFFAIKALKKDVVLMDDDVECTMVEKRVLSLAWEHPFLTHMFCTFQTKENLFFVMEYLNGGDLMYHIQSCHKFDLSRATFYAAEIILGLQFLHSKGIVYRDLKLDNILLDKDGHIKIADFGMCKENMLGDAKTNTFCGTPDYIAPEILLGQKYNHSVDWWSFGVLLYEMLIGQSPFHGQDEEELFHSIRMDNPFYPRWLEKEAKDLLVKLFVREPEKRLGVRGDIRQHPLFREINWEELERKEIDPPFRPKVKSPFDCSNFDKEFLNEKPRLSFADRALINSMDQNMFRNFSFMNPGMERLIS

Consider `NCC1CCCN(c2ccc(C(F)(F)F)c(-c3n[nH]c4ncccc34)n2)C1` (stereo not drawn) [Compound 128], for which the Ki in assay [1] is above 1.25 µM; in assay [2], above 0.7 µM; in assay [3], above 1.25 µM.
With `CC(C)C[C@@]1(F)CN(c2ccc(F)c(-c3n[nH]c4ncccc34)n2)CC[C@H]1O` [Compound 199], the Ki is above 1.25 µM in assay [1], below 0.5 µM in assay [2] and above 1.25 µM in assay [3].
As to `CC(C)C(N)C1CN(c2ccc(C(F)(F)F)c(-c3n[nH]c4ncccc34)n2)CCO1` (stereo not drawn) [Compound 348], the values for the Ki in assay [1], in assay [2] and in assay [3] were above 1.25 µM, below 0.5 µM and above 1.25 µM, respectively.
As to `CC(C)C[C@@H]1C[C@@H](N)CN(c2ccc(F)c(-c3n[nH]c4ncccc34)n2)C1` [Compound 367], the Ki in assay [1] was above 1.25 µM; in assay [2], below 0.05 µM; in assay [3] it was below 2.8 µM.
On the same counts, the results for `CC(C)C[C@H]1CN(c2cccc(-c3n[nH]c4ncccc34)n2)C[C@@H](C)N1` [Compound 11] are below 2.8 µM, below 0.05 µM and below 0.05 µM.
As for `OC1(C2CN(c3cccc(-c4n[nH]c5ncccc45)n3)CCN2)COC1` (stereo not drawn) [Compound 232], the Ki in assay [1] is above 1.25 µM; in assay [2] it was above 0.7 µM; in assay [3], above 1.25 µM.
In the case of `CC(C)CC1CN(c2ccc(F)c(-c3n[nH]c4ncccc34)n2)CCC1CC#N` (stereo not drawn) [Compound 452], the Ki in assay [1] was above 1.25 µM; in assay [2], below 0.05 µM; in assay [3] it was above 1.25 µM.
In the case of `NC(=O)C1(N2CCCCC2)CCN(c2ccc(C(F)(F)F)c(-c3n[nH]c4ncccc34)n2)CC1` [Compound 259], the Ki was above 1.25 µM in assay [1], above 0.7 µM in assay [2] and above 1.25 µM in assay [3].
As for `CC(C)C(C)(O)C1CN(c2nc(-c3n[nH]c4ncccc34)ccc2F)CCN1` (stereo not drawn) [Compound 328], the values for the Ki in assay [1], in assay [2] and in assay [3] were below 0.5 µM, below 0.001 µM and below 0.01 µM, respectively.
On the same counts, the results for `CC1(C)CN(c2ccc(C(F)(F)F)c(-c3n[nH]c4ncccc34)n2)CCC1N` (stereo not drawn) [Compound 428] are above 1.25 µM, below 0.5 µM and below 0.5 µM.
On to `CCC(N)(CC)C1CCCN(c2ccc(F)c(-c3n[nH]c4ncccc34)n2)C1` (stereo not drawn) [Compound 377], for which the Ki in assay [1] is above 1.25 µM; in assay [2] it was below 0.5 µM; in assay [3] it was below 2.8 µM.
`CC(C)C(F)(F)C1CN(c2cccc(-c3n[nH]c4ncccc34)n2)CCN1` (stereo not drawn) [Compound 143]: the results for the Ki in assay [1], in assay [2] and in assay [3] were above 1.25 µM, below 0.5 µM and below 2.8 µM, respectively.
For the molecule `NC1CCCN(c2cccc(-c3n[nH]c4ncccc34)n2)C1` (stereo not drawn) [Compound 68], the Ki is below 2.8 µM in assay [1], below 0.5 µM in assay [2] and below 0.5 µM in assay [3].
Regarding `COc1ccccc1C1CN(c2ccc(C(F)(F)F)c(-c3n[nH]c4ncccc34)n2)CCN1` (stereo not drawn) [Compound 114], the Ki in assay [1] was above 1.25 µM; in assay [2], below 0.5 µM; in assay [3] it was above 1.25 µM.
In the case of `Fc1ccc(N2CCNC3(CCC3)C2)nc1-c1n[nH]c2ncccc12` [Compound 188], the Ki was below 2.8 µM in assay [1], below 0.05 µM in assay [2] and below 0.5 µM in assay [3].
For `CCC[C@H]1CN(c2ccc(C(F)(F)F)c(-c3n[nH]c4ncccc34)n2)CC(F)(F)CN1` [Compound 223], in that order: above 1.25 µM, above 0.7 µM and above 1.25 µM.
For `CC(C)C[C@@H]1CN(c2ccc(C(F)(F)F)c(-c3n[nH]c4ncccc34)n2)CCN1` [Compound 193], in that order: above 1.25 µM, below 0.5 µM and above 1.25 µM.
With `CCC1(CC(C)C)CN(c2ccc(C(F)(F)F)c(-c3n[nH]c4ncccc34)n2)CCC1N` (stereo not drawn) [Compound 434], the Ki was below 0.5 µM in assay [1], below 0.05 µM in assay [2] and below 0.5 µM in assay [3].
Turning to `Fc1ccc(N2CCC(C(F)(F)F)CC2)nc1-c1n[nH]c2ncccc12` [Compound 268], the figures for the Ki in assay [1], in assay [2] and in assay [3] were above 1.25 µM, above 0.7 µM and above 1.25 µM, respectively.
As to `OCC1CCCN(c2ccc(C(F)(F)F)c(-c3n[nH]c4ncccc34)n2)C1` (stereo not drawn) [Compound 258], the Ki in assay [1] is above 1.25 µM; in assay [2], above 0.7 µM; in assay [3], above 1.25 µM.
In the case of `FC(F)(F)c1ccnc2[nH]nc(-c3cccc(N4CCNCC4)n3)c12` [Compound 191], the Ki in assay [1] was above 1.25 µM; in assay [2], below 0.5 µM; in assay [3] it was above 1.25 µM.
As to `Clc1ccc(N2CCNCC2)nc1-c1n[nH]c2ncccc12` [Compound 48], the Ki in assay [1] is below 2.8 µM; in assay [2], below 0.5 µM; in assay [3] it was below 2.8 µM.
In the case of `CC(C)C(C)(O)C1CN(c2cccc(-c3n[nH]c4ncccc34)n2)CCN1` (stereo not drawn) [Compound 177], the Ki was below 2.8 µM in assay [1], below 0.001 µM in assay [2] and below 0.05 µM in assay [3].
Turning to `CC(C)CC1(C)CN(c2cccc(-c3n[nH]c4ncccc34)n2)CCC1N` (stereo not drawn) [Compound 189], the values for the Ki in assay [1], in assay [2] and in assay [3] were below 0.5 µM, below 0.05 µM and below 0.05 µM, respectively.
Take `CC(F)(F)C(C)(O)C1CN(c2ccc(F)c(-c3n[nH]c4ncccc34)n2)CCN1` (stereo not drawn) [Compound 246]: the values for the Ki in assay [1], in assay [2] and in assay [3] were above 1.25 µM, below 0.05 µM and below 0.5 µM, respectively.
For the molecule `COC(C)C1CN(c2ccc(C(F)(F)F)c(-c3n[nH]c4ncccc34)n2)CCN1` (stereo not drawn) [Compound 221], the Ki is above 1.25 µM in assay [1], below 0.5 µM in assay [2] and above 1.25 µM in assay [3].
As to `CC(C)CC(N)C1CCCN(c2ccc(F)c(-c3n[nH]c4ncccc34)n2)C1` (stereo not drawn) [Compound 299], the Ki in assay [1] was above 1.25 µM; in assay [2] it was below 0.05 µM; in assay [3], below 2.8 µM.
Regarding `COC(C)(C)CC1CN(c2ccc(C(F)(F)F)c(-c3n[nH]c4ncccc34)n2)CCN1` (stereo not drawn) [Compound 100], the Ki is above 1.25 µM in assay [1], below 0.5 µM in assay [2] and above 1.25 µM in assay [3].
Consider `CC(C)C[C@@H]1CN(c2cccc(-c3n[nH]c4ncc(F)cc34)n2)CCN1` [Compound 46], for which the Ki in assay [1] was below 2.8 µM; in assay [2] it was below 0.05 µM; in assay [3], below 0.5 µM.
As for `NC(=O)C1CN(c2ccc(C(F)(F)F)c(-c3n[nH]c4ncccc34)n2)CCN1` (stereo not drawn) [Compound 213], the Ki is above 1.25 µM in assay [1], above 0.7 µM in assay [2] and above 1.25 µM in assay [3].
In the case of `CC(C)CC1(O)CN(c2ccc(F)c(-c3n[nH]c4ncccc34)n2)CCC1C#N` (stereo not drawn) [Compound 400], the Ki in assay [1] was above 1.25 µM; in assay [2], below 0.05 µM; in assay [3], below 2.8 µM.
As to `CC(C)C[C@H]1CN(c2cccc(-c3n[nH]c4ncccc34)n2)CC[C@H]1N` [Compound 118], the results for the Ki in assay [1], in assay [2] and in assay [3] were below 2.8 µM, below 0.05 µM and below 0.5 µM, respectively.
On to `CC(C)C[C@H]1CN(c2ccc(C(F)(F)F)c(-c3n[nH]c4ncccc34)n2)CC[C@H]1N` [Compound 84], for which the Ki was below 2.8 µM in assay [1], below 0.05 µM in assay [2] and below 0.5 µM in assay [3].
On the same counts, the results for `CC(C)CC1CN(c2ccc(C(F)(F)F)c(-c3n[nH]c4ncccc34)n2)CCC1CN` (stereo not drawn) [Compound 350] are above 1.25 µM, below 0.05 µM and above 1.25 µM.
With `CC(C)CC1(C#N)CN(c2ccc(F)c(-c3n[nH]c4ncccc34)n2)C1` [Compound 456], the Ki in assay [1] is above 1.25 µM; in assay [2] it was above 0.7 µM; in assay [3], above 1.25 µM.
Consider `CCC1(C)CN(c2ccc(C(F)(F)F)c(-c3n[nH]c4ncccc34)n2)CCC1N` (stereo not drawn) [Compound 447], for which the Ki is above 1.25 µM in assay [1], below 0.05 µM in assay [2] and below 0.5 µM in assay [3].
On to `OC1CCN(c2cccc(-c3n[nH]c4ncccc34)n2)CC1` [Compound 22], for which the Ki was above 1.25 µM in assay [1], above 0.7 µM in assay [2] and above 2 µM in assay [3].
On the same counts, the results for `CC1CN(c2cccc(-c3n[nH]c4ncccc34)n2)C(C)CN1` (stereo not drawn) [Compound 23] are above 1.25 µM, above 0.7 µM and above 2 µM.
On the same counts, the results for `CCC1CN(c2ccc(F)c(-c3n[nH]c4ncccc34)n2)CCC1C#N` (stereo not drawn) [Compound 407] are above 1.25 µM, below 0.05 µM and below 2.8 µM.
`CC(C)C[C@]1(O)CN(c2ccc(C(F)(F)F)c(-c3n[nH]c4ncccc34)n2)CC[C@@H]1N` [Compound 219]: the values for the Ki in assay [1], in assay [2] and in assay [3] were below 2.8 µM, below 0.5 µM and below 0.5 µM, respectively.
As to `CC(C)C(C)(O)C1CN(c2ccc(C(F)(F)F)c(-c3n[nH]c4ncccc34)n2)CCN1` (stereo not drawn) [Compound 236], the Ki was above 1.25 µM in assay [1], below 0.05 µM in assay [2] and above 1.25 µM in assay [3].
For `COc1cccc(C2CN(c3cccc(-c4n[nH]c5ncccc45)n3)CCN2)c1` (stereo not drawn) [Compound 35], the figures for the Ki in assay [1], in assay [2] and in assay [3] were below 0.5 µM, below 0.5 µM and above 2 µM, respectively.
As for `NCC1CCN(c2cc(CO)cc(-c3n[nH]c4ncccc34)n2)CC1` [Compound 453], the figures for the Ki in assay [1], in assay [2] and in assay [3] were above 1.25 µM, below 0.05 µM and below 0.5 µM, respectively.
